Test results reported in patent US8809586B2, “Modafinil compositions” (priority 2004, dated 2014).

assay: Solubility measured from an isopropyl acetate slurry, by HPLC; conditions: solid from solubility samples dried under nitrogen, characterized by PXRD and thermal microscopy

Structure (SMILES)	Form conversion during solubility procedure
NC(=O)C[S@@+]([O-])C(c1ccccc1)c1ccccc1 [R-(−)-modafinil Form III, R-(−)-2-[(Diphenylmethyl)sulfinyl]acetamide]	Form conversion was not observed
NC(=O)C[S@@+]([O-])C(c1ccccc1)c1ccccc1 [R-(−)-modafinil Form IV, R-(−)-2-[(Diphenylmethyl)sulfinyl]acetamide]	Form conversion was not observed
NC(=O)C[S@@+]([O-])C(c1ccccc1)c1ccccc1 [R-(−)-modafinil Form V, R-(−)-2-[(Diphenylmethyl)sulfinyl]acetamide]	Form conversion was not observed
